Active and inactive are the calls of the source. No cut-off for these calls is given here. Where a SMILES comes first, the peptide text is derived from it. [ ]: non-standard residue; d: D form. Phe(4-NO2) = N[C@@H](Cc1ccc([N+](=O)[O-])cc1)C(=O)O; Bip = N[C@@H](Cc1ccc(-c2ccccc2)cc1)C(=O)O; Phe(4-NH2) = Nc1ccc(C[C@H](N)C(=O)O)cc1; Phe(4-F) = N[C@@H](Cc1ccc(F)cc1)C(=O)O; 1Nal = N[C@@H](Cc1cccc2ccccc12)C(=O)O; 2Nal = N[C@@H](Cc1ccc2ccccc2c1)C(=O)O; Dmt = Cc1cc(O)cc(C)c1C[C@H](N)C(=O)O; hPhe = N[C@@H](CCc1ccccc1)C(=O)O; Phg = N[C@H](C(=O)O)c1ccccc1; Dab = NCC[C@H](N)C(=O)O; Abu = CC[C@H](N)C(=O)O; Dap = NC[C@H](N)C(=O)O
Assays:
[1] = target: T1, Mu-type opioid receptor (Homo sapiens, UniProt P35372); test: Agonist activity at human mu opioid receptor expressed in CHO cells assessed as stimulation of calcium mobilization by measuring concentration relative curve at 10 uM by Fluo-4 AM dye based analysis; format: functional, cell-based
T1 sequence (P35372 whole entry): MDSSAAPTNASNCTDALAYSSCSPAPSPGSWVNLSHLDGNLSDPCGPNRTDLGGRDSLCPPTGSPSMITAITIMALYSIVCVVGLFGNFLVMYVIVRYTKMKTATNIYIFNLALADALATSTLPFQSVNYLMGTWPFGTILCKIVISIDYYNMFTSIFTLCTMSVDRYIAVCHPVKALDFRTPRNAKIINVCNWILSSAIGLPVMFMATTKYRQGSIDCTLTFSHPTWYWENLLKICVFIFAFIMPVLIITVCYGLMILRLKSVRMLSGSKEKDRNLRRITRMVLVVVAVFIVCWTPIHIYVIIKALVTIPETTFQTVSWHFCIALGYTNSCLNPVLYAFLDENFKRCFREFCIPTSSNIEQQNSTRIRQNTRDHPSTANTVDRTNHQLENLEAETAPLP

[2] = target: T1, Mu-type opioid receptor; test: Agonist activity at human mu opioid receptor expressed in CHO cells assessed as stimulation of calcium mobilization by Fluo-4 AM dye based analysis
[3] = system: CHO; test: Concentration ratio of human NOP receptor expressed in CHO cells to human mu opioid receptor expressed in CHO cells; format: cell-based
[4] = target: T2, Nociceptin receptor (Homo sapiens, UniProt P41146); test: Agonist activity at human NOP receptor expressed in CHO cells assessed as stimulation of calcium mobilization by Fluo-4 AM dye based analysis
T2 sequence (P41146 whole entry): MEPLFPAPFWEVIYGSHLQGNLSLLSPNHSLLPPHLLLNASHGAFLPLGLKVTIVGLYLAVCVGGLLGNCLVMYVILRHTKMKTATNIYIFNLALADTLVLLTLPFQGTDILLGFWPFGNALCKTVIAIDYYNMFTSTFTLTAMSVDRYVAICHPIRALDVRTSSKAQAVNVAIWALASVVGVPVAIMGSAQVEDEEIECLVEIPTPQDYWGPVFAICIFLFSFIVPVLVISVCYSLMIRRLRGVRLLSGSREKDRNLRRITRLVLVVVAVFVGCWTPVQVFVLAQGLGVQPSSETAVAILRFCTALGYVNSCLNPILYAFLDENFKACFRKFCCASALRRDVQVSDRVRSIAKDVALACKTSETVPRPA

[5] = target: T1, Mu-type opioid receptor; conditions: CHO
[6] = target: T1, Mu-type opioid receptor; test: Agonist activity at human mu opioid receptor expressed in CHO cells assessed as dynamic mass redistribution by DMR assay; format: functional, cell-based
[7] = target: Kappa-type opioid receptor (Homo sapiens, UniProt P41145); test: Agonist activity at human kappa opioid receptor expressed in CHO cells assessed as stimulation of calcium mobilization by Fluo-4 AM dye based analysis; format: functional, cell-based
Sequence of Kappa-type opioid receptor (P41145 whole entry): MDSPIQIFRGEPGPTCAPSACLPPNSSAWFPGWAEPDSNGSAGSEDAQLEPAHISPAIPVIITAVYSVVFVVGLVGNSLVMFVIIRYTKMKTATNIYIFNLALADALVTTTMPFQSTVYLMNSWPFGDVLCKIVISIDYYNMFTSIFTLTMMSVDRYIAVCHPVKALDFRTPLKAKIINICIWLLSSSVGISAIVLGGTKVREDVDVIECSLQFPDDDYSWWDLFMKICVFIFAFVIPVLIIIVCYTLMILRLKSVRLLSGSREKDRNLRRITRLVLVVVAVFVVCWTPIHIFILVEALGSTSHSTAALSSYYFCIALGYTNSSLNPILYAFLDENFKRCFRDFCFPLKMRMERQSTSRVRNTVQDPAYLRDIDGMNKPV

[8] = target: T2, Nociceptin receptor
Description: Agonist activity at human NOP receptor expressed in CHO cells assessed as dynamic mass redistribution by DMR assay

[9] = organism: Cavia porcellus; test: Anti-tussive activity in citric acid-induced guniea pig cough model assessed as reduction in cough number co- treated with nebulizer; format: functional, organism-based; conditions: time 30.0 min
[10] = system: Cavia porcellus; test: Anti-tussive activity in citric acid-induced guniea pig cough model coadministered with citric acid; format: functional, organism-based
[11] = target: T1, Mu-type opioid receptor; test: Agonist activity at human mu opioid receptor expressed in CHO cells assessed as dynamic mass redistribution by DMR assay relative to control; format: functional, cell-based; conditions: filed as agonist

| Compound | pEC50 [1] | EC50 [2] [nM] | Ratio [3] | EC50 [4] [nM] | also measured |
| --- | --- | --- | --- | --- | --- |
| C[C@H](NC(=O)CNC(=O)[C@H](CCc1ccccc1)NC(=O)[C@H](Cc1ccccc1)NC(=O)CNC(=O)CNC(=O)[C@@H](N)Cc1ccc(O)cc1)C(=O)N[C@@H](CCCNC(=N)N)C(=O)N[C@@H](CCCCN)C(=O)N[C@@H](CO)C(=O)N[C@@H](C)C(=O)N[C@@H](CCCNC(=N)N)C(=O)N[C@@H](CCCCN)C(N)=O (H-YGGF[hPhe]GARKSARK-NH2) | inactive |  |  |  |  |
| H-YGGFKGARKSARK-NH2 | inactive |  |  |  |  |
| Cc1cc(O)cc(C)c1C[C@H](N)C(=O)NCC(=O)NCC(=O)N[C@@H](Cc1ccccc1)C(=O)N[C@@H](Cc1ccc(O)cc1)C(=O)NCC(=O)N[C@@H](C)C(=O)N[C@@H](CCCNC(=N)N)C(=O)N[C@@H](CCCCN)C(=O)N[C@@H](CO)C(=O)N[C@@H](C)C(=O)N[C@@H](CCCNC(=N)N)C(=O)N[C@@H](CCCCN)C(N)=O (H-[Dmt]GGFYGARKSARK-NH2) |  | 15.5 | 7.94 | 123 |  |
| C[C@H](NC(=O)CNC(=O)[C@H](Cc1ccc2ccccc2c1)NC(=O)[C@H](Cc1ccccc1)NC(=O)CNC(=O)CNC(=O)[C@@H](N)Cc1ccc(O)cc1)C(=O)N[C@@H](CCCNC(=N)N)C(=O)N[C@@H](CCCCN)C(=O)N[C@@H](CO)C(=O)N[C@@H](C)C(=O)N[C@@H](CCCNC(=N)N)C(=O)N[C@@H](CCCCN)C(N)=O (H-YGGF[2Nal]GARKSARK-NH2) | inactive |  |  |  |  |
| C[C@H](NC(=O)CNC(=O)[C@H](CCN)NC(=O)[C@H](Cc1ccccc1)NC(=O)CNC(=O)CNC(=O)[C@@H](N)Cc1ccc(O)cc1)C(=O)N[C@@H](CCCNC(=N)N)C(=O)N[C@@H](CCCCN)C(=O)N[C@@H](CO)C(=O)N[C@@H](C)C(=O)N[C@@H](CCCNC(=N)N)C(=O)N[C@@H](CCCCN)C(N)=O (H-YGGF[Dab]GARKSARK-NH2) | inactive |  |  |  |  |
| Cc1cc(O)cc(C)c1C[C@H](NC(=O)[C@H](Cc1ccccc1)NC(=O)CNC(=O)CNC(=O)[C@@H](N)Cc1ccc(O)cc1)C(=O)NCC(=O)N[C@@H](C)C(=O)N[C@@H](CCCNC(=N)N)C(=O)N[C@@H](CCCCN)C(=O)N[C@@H](CO)C(=O)N[C@@H](C)C(=O)N[C@@H](CCCNC(=N)N)C(=O)N[C@@H](CCCCN)C(N)=O (H-YGGF[Dmt]GARKSARK-NH2) |  | 195 | 0.09 | 17.8 |  |
| Cc1cc(O)cc(C)c1C[C@H](N)C(=O)NCC(=O)NCC(=O)N[C@@H](Cc1ccccc1)C(=O)N[C@@H](Cc1ccc(N)cc1)C(=O)NCC(=O)N[C@@H](C)C(=O)N[C@@H](CCCNC(=N)N)C(=O)N[C@@H](CCCCN)C(=O)N[C@@H](CO)C(=O)N[C@@H](C)C(=O)N[C@@H](CCCNC(=N)N)C(=O)N[C@@H](CCCCN)C(N)=O (H-[Dmt]GGF[Phe(4-NH2)]GARKSARK-NH2) |  | 15.1 | 1.73 | 26.3 |  |
| H-YGGFTGARKSARK-NH2 | inactive |  | < 0.001 |  |  |
| H-YGGFVGARKSARK-NH2 | inactive |  |  |  |  |
| C[C@H](NC(=O)CNC(=O)[C@H](Cc1ccc(N)cc1)NC(=O)[C@H](Cc1ccccc1)NC(=O)CNC(=O)CNC(=O)[C@@H](N)Cc1ccc(O)cc1)C(=O)N[C@@H](CCCNC(=N)N)C(=O)N[C@@H](CCCCN)C(=O)N[C@@H](CO)C(=O)N[C@@H](C)C(=O)N[C@@H](CCCNC(=N)N)C(=O)N[C@@H](CCCCN)C(N)=O (H-YGGF[Phe(4-NH2)]GARKSARK-NH2) |  | 372 | 0.08 | 30.2 |  |
| CC[C@H](NC(=O)[C@H](Cc1ccccc1)NC(=O)CNC(=O)CNC(=O)[C@@H](N)Cc1ccc(O)cc1)C(=O)NCC(=O)N[C@@H](C)C(=O)N[C@@H](CCCNC(=N)N)C(=O)N[C@@H](CCCCN)C(=O)N[C@@H](CO)C(=O)N[C@@H](C)C(=O)N[C@@H](CCCNC(=N)N)C(=O)N[C@@H](CCCCN)C(N)=O (H-YGGF[Abu]GARKSARK-NH2) | inactive |  |  |  |  |
| H-YGGFWGARKSARK-NH2 | inactive |  |  |  |  |
| Cc1cc(O)cc(C)c1C[C@H](N)C(=O)NCC(=O)NCC(=O)N[C@@H](Cc1ccccc1)C(=O)N[C@@H](Cc1ccccc1)C(=O)NCC(=O)N[C@@H](C)C(=O)N[C@@H](CCCNC(=N)N)C(=O)N[C@@H](CCCCN)C(=O)N[C@@H](CO)C(=O)N[C@@H](C)C(=O)N[C@@H](CCCNC(=N)N)C(=O)N[C@@H](CCCCN)C(N)=O (H-[Dmt]GGFFGARKSARK-NH2) |  | 6.46 | 8.71 | 56.2 |  |
| C[C@H](NC(=O)CNC(=O)[C@@H](NC(=O)[C@H](Cc1ccccc1)NC(=O)CNC(=O)CNC(=O)[C@@H](N)Cc1ccccc1)[C@@H](C)O)C(=O)N[C@@H](CCCNC(=N)N)C(=O)N[C@@H](CCCCN)C(=O)N[C@@H](CO)C(=O)N[C@@H](C)C(=O)N[C@@H](CCCNC(=N)N)C(=O)N[C@@H](CCCCN)C(N)=O |  |  |  |  | pEC50 [5]: inactive |
| C[C@H](NC(=O)CNC(=O)[C@H](Cc1ccc([N+](=O)[O-])cc1)NC(=O)[C@H](Cc1ccccc1)NC(=O)CNC(=O)CNC(=O)[C@@H](N)Cc1ccc(O)cc1)C(=O)N[C@@H](CCCNC(=N)N)C(=O)N[C@@H](CCCCN)C(=O)N[C@@H](CO)C(=O)N[C@@H](C)C(=O)N[C@@H](CCCNC(=N)N)C(=O)N[C@@H](CCCCN)C(N)=O (H-YGGF[Phe(4-NO2)]GARKSARK-NH2) | inactive |  | 0.06 | 49 |  |
| C[C@H](NC(=O)CNC(=O)[C@H](Cc1ccc(-c2ccccc2)cc1)NC(=O)[C@H](Cc1ccccc1)NC(=O)CNC(=O)CNC(=O)[C@@H](N)Cc1ccc(O)cc1)C(=O)N[C@@H](CCCNC(=N)N)C(=O)N[C@@H](CCCCN)C(=O)N[C@@H](CO)C(=O)N[C@@H](C)C(=O)N[C@@H](CCCNC(=N)N)C(=O)N[C@@H](CCCCN)C(N)=O (H-YGGF[Bip]GARKSARK-NH2) | inactive |  |  |  |  |
| H-YGGFK(Ac)GARKSARK-NH2 | inactive |  |  |  |  |
| H-YGGFHGARKSARK-NH2 | inactive |  |  |  |  |
| C[C@H](NC(=O)CNC(=O)[C@H](CN)NC(=O)[C@H](Cc1ccccc1)NC(=O)CNC(=O)CNC(=O)[C@@H](N)Cc1ccc(O)cc1)C(=O)N[C@@H](CCCNC(=N)N)C(=O)N[C@@H](CCCCN)C(=O)N[C@@H](CO)C(=O)N[C@@H](C)C(=O)N[C@@H](CCCNC(=N)N)C(=O)N[C@@H](CCCCN)C(N)=O (H-YGGF[Dap]GARKSARK-NH2) | inactive |  |  |  |  |
| COc1ccc(C[C@H](NC(=O)[C@H](Cc2ccccc2)NC(=O)CNC(=O)CNC(=O)[C@@H](N)Cc2ccc(O)cc2)C(=O)NCC(=O)N[C@@H](C)C(=O)N[C@@H](CCCNC(=N)N)C(=O)N[C@@H](CCCCN)C(=O)N[C@@H](CO)C(=O)N[C@@H](C)C(=O)N[C@@H](CCCNC(=N)N)C(=O)N[C@@H](CCCCN)C(N)=O)cc1 (H-YGGFY(Me)GARKSARK-NH2) | inactive |  | 0.02 | 13.2 |  |
| Cc1cc(O)cc(C)c1C[C@H](NC(=O)[C@H](Cc1ccccc1)NC(=O)CNC(=O)CNC(=O)[C@@H](N)Cc1c(C)cc(O)cc1C)C(=O)NCC(=O)N[C@@H](C)C(=O)N[C@@H](CCCNC(=N)N)C(=O)N[C@@H](CCCCN)C(=O)N[C@@H](CO)C(=O)N[C@@H](C)C(=O)N[C@@H](CCCNC(=N)N)C(=O)N[C@@H](CCCCN)C(N)=O (H-[Dmt]GGF[Dmt]GARKSARK-NH2) |  | 8.32 | 0.49 | 4.07 | EC50 [6]: 2.29 nM; EC50 [7]: 3.24 nM; EC50 [8]: 19.5 nM; Activity [9]: Active; Activity [10]: inactive; Emax [11]: 202% |
| C[C@H](NC(=O)CNC(=O)[C@H](Cc1ccc(F)cc1)NC(=O)[C@H](Cc1ccccc1)NC(=O)CNC(=O)CNC(=O)[C@@H](N)Cc1ccc(O)cc1)C(=O)N[C@@H](CCCNC(=N)N)C(=O)N[C@@H](CCCCN)C(=O)N[C@@H](CO)C(=O)N[C@@H](C)C(=O)N[C@@H](CCCNC(=N)N)C(=O)N[C@@H](CCCCN)C(N)=O (H-YGGF[Phe(4-F)]GARKSARK-NH2) | inactive |  | 0.06 | 49 |  |
| Cc1cc(O)cc(C)c1C[C@H](N)C(=O)NCC(=O)NCC(=O)N[C@@H](Cc1ccccc1)C(=O)N[C@@H](Cc1cccc2ccccc12)C(=O)NCC(=O)N[C@@H](C)C(=O)N[C@@H](CCCNC(=N)N)C(=O)N[C@@H](CCCCN)C(=O)N[C@@H](CO)C(=O)N[C@@H](C)C(=O)N[C@@H](CCCNC(=N)N)C(=O)N[C@@H](CCCCN)C(N)=O (H-[Dmt]GGF[1Nal]GARKSARK-NH2) |  | 15.8 | 3.8 | 60.3 |  |
| H-YGGFNGARKSARK-NH2 | inactive |  |  |  |  |
| Cc1cc(O)cc(C)c1C[C@H](N)C(=O)NCC(=O)NCC(=O)N[C@@H](Cc1ccccc1)C(=O)N[C@H](C(=O)NCC(=O)N[C@@H](C)C(=O)N[C@@H](CCCNC(=N)N)C(=O)N[C@@H](CCCCN)C(=O)N[C@@H](CO)C(=O)N[C@@H](C)C(=O)N[C@@H](CCCNC(=N)N)C(=O)N[C@@H](CCCCN)C(N)=O)[C@@H](C)O |  | 42.7 | 0.06 | 2.69 |  |
| Cc1cc(O)cc(C)c1C[C@H](N)C(=O)NCC(=O)NCC(=O)N[C@@H](Cc1ccccc1)C(=O)N[C@H](C(=O)NCC(=O)N[C@@H](C)C(=O)N[C@@H](CCCNC(=N)N)C(=O)N[C@@H](CCCCN)C(=O)N[C@@H](CO)C(=O)N[C@@H](C)C(=O)N[C@@H](CCCNC(=N)N)C(=O)N[C@@H](CCCCN)C(N)=O)c1ccccc1 (H-[Dmt]GGF[Phg]GARKSARK-NH2) |  | 2.88 | 39 | 112 |  |
